Test system: Male CD-1 mice
Settings: mouse, in vivo

SMILES	ED50 Value, Combination (Total Drug Dose), Additive (predicted) [mg/kg s.c.]	ED50 Value, Combination (Total Drug Dose), Observed [mg/kg s.c.]	ED50 Value, Drug alone	isobolographic analysis: combination with methadone versus composite additive line (FIG. 3)	interaction with a fixed dose of L-methadone (FIG. 1A) (sc)	also measured
COc1ccc2c3c1O[C@H]1[C@@H](O)C=C[C@H]4[C@@H](C2)N(C)CC[C@@]341 [Codeine, codeine]	2.79 ± 0.22	0.74 ± 0.10	3.7 ± 0.4 mg/kg s.c.	significantly greater than the composite additive line	greater than additive responses	
CCC(=O)C(C[C@H](C)N(C)C)(c1ccccc1)c1ccccc1 [D-Methadone, D-methadone]			>>4 mg/kg s.c.			analgesic effect alone: did not show any effects alone; effect on morphine responses when given together (FIG. 2): did not influence morphine responses
CCC(=O)C(C[C@@H](C)N(C)C)(c1ccccc1)c1ccccc1 [L-Methadone, L-methadone]			1.9 ± 0.2 mg/kg s.c.			ED80 dose: 4 mg/kg s.c.; effect on morphine responses when given together (FIG. 2): did reveal synergy; interaction with morphine (FIG. 1B) (sc): greater than additive interactions
CN1CC[C@]23c4c5ccc(O)c4O[C@H]2[C@@H](O[C@@H]2O[C@H](C(=O)O)[C@@H](O)[C@H](O)[C@H]2O)C=C[C@H]3[C@H]1C5 [M6G, morphine-6β-glucuronide]	2.80 ± 0.21	1.03 ± 0.34	3.7 ± 0.4 mg/kg s.c.	significantly greater than the composite additive line	greater than the sum of their independent actions	
CN1CC[C@]23c4c5ccc(O)c4O[C@H]2[C@@H](O)C=C[C@H]3[C@H]1C5 [Morphine, morphine]	3.11 ± 0.32	0.83 ± 0.12	4.7 ± 1.1 mg/kg s.c.	significant greater than the composite additive line	greater than the sum of their independent actions	analgesic activity of the combination versus additivity (FIG. 4): significantly greater than additive
CCOC(=O)C1(c2ccccc2)CCN(C)CC1 [meperidine]					additive interactions	
COc1ccc2c3c1O[C@H]1C(=O)CC[C@@]4(O)[C@@H](C2)N(C)CC[C@]314 [oxycodone]					additive interactions	
CN1CC[C@]23c4c5ccc(O)c4O[C@H]2C(=O)CC[C@@]3(O)[C@H]1C5 [oxymorphone]					additive interactions	

— US20050187239A1 (priority 2002, published 2005)
